Source: ChEMBL document CHEMBL1909046, “DrugMatrix in vitro pharmacology data”

Key:
[1] = DRUGMATRIX: Calcium Channel Type L, Benzothiazepine radioligand binding (ligand: [3H] Diltiazem); format: cell membranes, Rattus norvegicus, Wistar, Brain, Membrane; conditions: Not Active = under 50% inhibition at 10 µM
[2] = DRUGMATRIX: Sigma2 radioligand binding (ligand: [3H] Ifenprodil); format: cell membranes, Rattus norvegicus, Wistar, Brain, Membrane; conditions: Not Active = under 50% inhibition at 10 µM
[3] = molecular target: T1, Cholecystokinin receptor type A (Homo sapiens, UniProt P32238); format: cell membranes, Membrane; conditions: 1321-n1; also: in other assays of this panel Not Active means under 50% inhibition at 10 µM
T1 sequence (P32238 whole entry): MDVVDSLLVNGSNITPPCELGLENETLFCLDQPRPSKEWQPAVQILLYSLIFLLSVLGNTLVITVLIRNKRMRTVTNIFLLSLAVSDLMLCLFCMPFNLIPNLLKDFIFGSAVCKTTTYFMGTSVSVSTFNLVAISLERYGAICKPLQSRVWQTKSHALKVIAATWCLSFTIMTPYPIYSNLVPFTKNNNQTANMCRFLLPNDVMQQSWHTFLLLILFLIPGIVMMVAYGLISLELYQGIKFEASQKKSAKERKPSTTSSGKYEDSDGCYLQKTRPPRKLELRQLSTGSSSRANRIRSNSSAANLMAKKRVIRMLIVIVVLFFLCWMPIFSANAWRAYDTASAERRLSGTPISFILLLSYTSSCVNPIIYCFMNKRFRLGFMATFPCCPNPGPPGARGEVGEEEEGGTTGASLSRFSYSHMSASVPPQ

[4] = DRUGMATRIX: GABAA, Muscimol, Central radioligand binding (ligand: [3H] Muscimol); format: cell membranes, Rattus norvegicus, Wistar, Brain, Membrane; conditions: Not Active = under 50% inhibition at 10 µM
[5] = DRUGMATRIX: GABAA, Chloride Channel, TBOB radioligand binding (ligand: [3H] TBOB); format: cell membranes, Rattus norvegicus, Wistar, Cerebral cortex, Membrane; conditions: Not Active = under 50% inhibition at 10 µM
[6] = molecular target: T2, Muscarinic acetylcholine receptor M5 (Homo sapiens, UniProt P08912); format: cell membranes, CHO-K1, Membrane; also: in other assays of this panel Not Active means under 50% inhibition at 10 µM
T2 sequence (P08912 whole entry): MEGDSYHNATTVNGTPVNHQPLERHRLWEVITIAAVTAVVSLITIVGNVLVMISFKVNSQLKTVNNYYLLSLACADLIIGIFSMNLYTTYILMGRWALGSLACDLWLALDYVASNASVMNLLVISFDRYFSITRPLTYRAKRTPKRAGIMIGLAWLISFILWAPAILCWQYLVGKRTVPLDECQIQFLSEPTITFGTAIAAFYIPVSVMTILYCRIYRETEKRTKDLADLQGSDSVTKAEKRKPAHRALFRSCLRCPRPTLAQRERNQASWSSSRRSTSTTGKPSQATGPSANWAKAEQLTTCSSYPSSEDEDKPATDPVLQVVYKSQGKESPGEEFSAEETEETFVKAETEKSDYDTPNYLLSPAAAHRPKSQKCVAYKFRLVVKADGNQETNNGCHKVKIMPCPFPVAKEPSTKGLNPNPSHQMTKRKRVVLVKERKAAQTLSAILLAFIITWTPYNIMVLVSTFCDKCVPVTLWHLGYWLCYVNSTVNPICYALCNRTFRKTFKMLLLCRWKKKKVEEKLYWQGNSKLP

SMILES	IC50 ([1]; read-out: IC50) [µM]	Ki ([1]; read-out: Ki) [µM]	IC50 [2]	Ki [2]	IC50 [3]	IC50 [4]	Ki [4]	IC50 [5]	Ki [5]	IC50 ([6]; cho-k1)	IC50 [1]	Ki [1]	IC50 ([2]; read-out: IC50) [µM]	Ki ([2]; read-out: Ki) [µM]	IC50 ([6]; read-out: IC50) [µM]	Ki ([6]; read-out: Ki) [µM]
CC#C[C@]1(O)CC[C@H]2[C@@H]3CCC4=CC(=O)CCC4=C3[C@@H](c3ccc(N(C)C)cc3)C[C@@]21C [MIFEPRISTONE]	29	25.8	Not Active	Not Active	Not Active	Not Active	Not Active	Not Active	Not Active	Not Active						
CC[C@@]1(O)C(=O)OCc2c1cc1n(c2=O)Cc2cc3c(CN(C)C)c(O)ccc3nc2-1 [TOPOTECAN]			Not Active	Not Active	Not Active	Not Active	Not Active	Not Active	Not Active	Not Active	Not Active	Not Active				
Nc1nc(N)c2nc(-c3ccccc3)c(N)nc2n1			Not Active	Not Active	Not Active	Not Active	Not Active	Not Active	Not Active	Not Active	Not Active	Not Active				
Cc1cc2c(s1)Nc1ccccc1N=C2N1CCN(C)CC1 [OLANZAPINE]					Not Active											
CC[C@H](C)[C@@H](CO[C@@H](Cc1ccccc1)C(=O)N[C@@H](CCS(C)(=O)=O)C(=O)OC(C)C)NC[C@@H](N)CS	3.57	3.17	Not Active	Not Active	Not Active	Not Active	Not Active	Not Active	Not Active	Not Active						
CO[C@@]12[C@H](COC(N)=O)C3=C(C(=O)C(C)=C(N)C3=O)N1C[C@@H]1N[C@@H]12 [MITOMYCIN]			Not Active	Not Active	Not Active	Not Active	Not Active	Not Active	Not Active	Not Active	Not Active	Not Active				
CCOC(=O)C1=C(C)NC(C)=C(C(=O)OCC)C1c1ccccc1/C=C/C(=O)OC(C)(C)C [LACIDIPINE]	0.00545	0.00484	Not Active	Not Active	Not Active	Not Active	Not Active	Not Active	Not Active	Not Active						
Cc1cn([C@H]2C=C[C@@H](CO)O2)c(=O)[nH]c1=O [STAVUDINE]			Not Active	Not Active	Not Active	Not Active	Not Active	Not Active	Not Active	Not Active	Not Active	Not Active				
C#C[C@]1(O)CC[C@H]2[C@@H]3[C@H](C)CC4=C(CCC(=O)C4)[C@H]3CC[C@@]21C [TIBOLONE]			Not Active	Not Active	Not Active	Not Active	Not Active	Not Active	Not Active	Not Active	Not Active	Not Active				
CC(O)C(=O)O (stereo not drawn) [LACTIC ACID]			Not Active	Not Active	Not Active	Not Active	Not Active	Not Active	Not Active	Not Active	Not Active	Not Active				
O=C(O)c1cc(/N=N/c2ccc(S(=O)(=O)Nc3ccccn3)cc2)ccc1O [SULFASALAZINE]			Not Active	Not Active	Not Active	Not Active	Not Active	Not Active	Not Active	Not Active	Not Active	Not Active				
CCN(CC)C(=S)SSC(=S)N(CC)CC					Not Active	Not Active	Not Active	Not Active	Not Active	Not Active	Not Active	Not Active	75.6	46.5		
CNCCCC12CCC(c3ccccc31)c1ccccc12 [MAPROTILINE]					Not Active										0.16	0.115
Cc1ccc(Cl)c(Nc2ccccc2C(=O)O)c1Cl [MECLOFENAMIC ACID]			Not Active	Not Active	Not Active	Not Active	Not Active	Not Active	Not Active	Not Active	Not Active	Not Active				
CC(C)(C)NC[C@H](O)COc1cccc2c1CCCC2=O [LEVOBUNOLOL]			Not Active	Not Active	Not Active	Not Active	Not Active	Not Active	Not Active	Not Active	Not Active	Not Active				
Cc1cccc(C)c1NC(=O)C(C)N (stereo not drawn) [TOCAINIDE]			Not Active	Not Active	Not Active	Not Active	Not Active	Not Active	Not Active	Not Active	Not Active	Not Active				
CCOc1cc(N)c(Cl)cc1C(=O)NCC1CN(Cc2ccc(F)cc2)CCO1 (stereo not drawn) [MOSAPRIDE]			Not Active	Not Active	Not Active	Not Active	Not Active	Not Active	Not Active	Not Active	Not Active	Not Active				
Cc1cnc(NC(=O)C2=C(O)c3ccccc3S(=O)(=O)N2C)s1 [MELOXICAM]			Not Active	Not Active	Not Active	Not Active	Not Active	Not Active	Not Active	Not Active	Not Active	Not Active				
O=C1CC[C@@]2(O)[C@H]3Cc4ccc(O)c5c4[C@@]2(CCN3CC2CC2)[C@H]1O5 [NALTREXONE]			Not Active	Not Active	Not Active	Not Active	Not Active	Not Active	Not Active	Not Active	Not Active	Not Active				
O=C(c1ccccc1)c1ccc2n1CCC2C(=O)O (stereo not drawn) [KETOROLAC]			Not Active	Not Active	Not Active	Not Active	Not Active	Not Active	Not Active	Not Active	Not Active	Not Active				
Oc1ccc(/C=C/c2cc(O)cc(O)c2)cc1 [RESVERATROL]			Not Active	Not Active	Not Active	Not Active	Not Active	Not Active	Not Active	Not Active	Not Active	Not Active				
CN1C(=O)OC(C)(C)C1=O [TRIMETHADIONE]			Not Active	Not Active	Not Active	Not Active	Not Active	Not Active	Not Active	Not Active	Not Active	Not Active				
Cc1[nH]c(=O)c(C#N)cc1-c1ccncc1 [MILRINONE]			Not Active	Not Active	Not Active	Not Active	Not Active	Not Active	Not Active	Not Active	Not Active	Not Active				
C[C@]12CCC(=O)C[C@@H]1CC[C@@H]1[C@@H]2CC[C@]2(C)[C@@H](O)CC[C@@H]12 [STANOLONE]			Not Active	Not Active	Not Active	Not Active	Not Active	Not Active	Not Active	Not Active	Not Active	Not Active				
CCN(CC)CCNC(=O)c1cc(Cl)c(N)cc1OC [METOCLOPRAMIDE]			Not Active	Not Active	Not Active	Not Active	Not Active	Not Active	Not Active	Not Active	Not Active	Not Active				
C[N+]1(C)[C@@H]2C[C@@H](OC(=O)[C@H](CO)c3ccccc3)C[C@H]1[C@@H]1O[C@@H]12.[Br-] [METHSCOPOLAMINE BROMIDE]			Not Active	Not Active	Not Active	Not Active	Not Active	Not Active	Not Active		Not Active	Not Active				
